In patent publication US4968671A, “Therapeutic agents for ischemic heart diseases” (Yamanouchi Pharmaceutical Co., Ltd., priority 1987, dated 1990):

Key:
mice = test: acute toxicity (LD50), intraperitoneal injection to mice; format: in vivo
dogs = test: inhibitory action on ventricular extra systole on reperfusion of the occluded coronary artery in anesthetized open-chest dogs; format: in vivo; conditions: 60 min coronary occlusion then 20 min reperfusion, 300 mg/kg i.v. + 10 mg/kg/min i.v., mean ± standard deviation, P < 0.05 vs control group (35.9 ± 10.2)
Procedure: The inhibitory action of glutathione monoisopropyl ester on ventricular extra systole occurred when the occluded coronary artery was reperfused in dogs was tested with the following method.
Measurement was carried out by partially modifying Gibsons' method (J. Cardiovasc. Pharmacol., 5, 517-524, 1983). Dogs (Mongrel, female and male, 9-18 kg) were anesthetized with pentobarbital, the chest was opened under artificial respiration. And then the left coronary artery anterior descending segmental branch was occluded for 60 minutes. Thereafter, a reperfusion was carried out for 20 minutes and then blood pressure and heart rate as well as the heart surface electrocardiogram were measured.
The glutathione monoisopropyl ester (GE) was intravenously administered in a single dose of 300 mg/kg 30 minutes after the coronary artery occlusion and continuous injection was carried out in the amount of 10 mg/kg/min, i.v., until the completion of this test from 40 minutes after the coronary artery occlusion. The effect of an agent was evaluated by the number of the ventricular extra systole for a minute, which had been occured during the time period of reperfusion.

## CC(C)OC(=O)CNC(=O)[C@H](CS)NC(=O)CC[C@H](N)C(=O)O [GE, isopropyl r-L-glutamyl-L-cysteinyl glycinate]
mice
  acute toxicity (LD50): approximately 5.3 g/kg
dogs
  Number of ventricular extra systole: 10.0 ± 5.6 counts/min
